Laboratory results from patent US6436960B1, “Farnesyl transferase inhibitors having a piperidine structure and process for preparation thereof” (LG Chemical Ltd., priority 1998, dated 2002).

Assays:
Ras farnesyl transferase [1] = molecular target: T1, Ras farnesyl transferase (Homo sapiens, UniProt P49354+P49356); test: in vitro inhibitory activity for Ras farnesyl transferase, H-Ras substrate; type: biochemical
T1 construct: made in house
Experimental: (§1) In the present experiment, Ras farnesyl transferase produced by genetic recombination techniques according to the improved Pompliano's method (Pompliano et al., Biochemistry, 1992, 31, 3800) was used, and Ras substrate(Ras-CVLS) protein described in Korean Patent Appln. No. 97-14409 was used after it has been purified according to the known method(see, Chung et al., Biochimica et Biophysica Acta, 1992, 278, 1129).
(§2) The enzyme reaction was performed in 50 μl of 50 mM Soduam HEPES buffer solution containing 25 mM of potassium chloride, 25 mM of magnesium chloride, 10 mM of DTT and 50 μM of zinc chloride. 1.5 μM of Ras substrate protein, 0.15 μM of tritium-farnesylpyrophosphate and 4.5 nM of farnesyl transferase were used.
(§3) More specifically, in the initial step, farnesyl transferase was added to the above buffer solution, reaction was maintained for 30 minutes at 37° C. and then the reaction was stopped by adding 1 ml of ethanol solution containing 1M HCl. The formed precipitates were adsorbed to GF/B filter using Hopper harvestor(Hopper #FH 225V) for filter-binding, washed with ethanol, and then radioactivity of the dried filter was measured using LKB β counter. Enzyme titer was measured in the unsaturated state of substrate where the concentrations of Ras substrate protein and farnesyl transferase have quantitative relationship. The compound according to the present invention dissolved in dimethyl sulfoxide(DMSO) was added to the reaction solution in an amount of less than 5% of the total reaction solution, and then the enzyme inhibitory activity thereof was measured. The enzyme inhibitory activity was represented by percentage of the amount of farnesyl incorporated into the Ras substrate protein in the presence of the test compound to that in the absence of the test compound. IC50 of the test compound was defined as the concentration at which 50% of the enzyme activity was inhibited.

Ras farnesyl transferase [2] = molecular target: T1, Ras farnesyl transferase; test: in vitro inhibitory activity for Ras farnesyl transferase, K-Ras substrate; type: biochemical
Experimental: as §1, with “and Ras substrate(Ras-CVLS) protein described in Korean Patent” left out
as §2, §3

Ras farnesyl transferase [3] = molecular target: T2, Ras farnesyl transferase (Rattus norvegicus, UniProt Q02293+Q04631); test: in vivo (cellular) Ras farnesyl transferase inhibitory activity, Rat2 cells expressing C-Harvey-Ras; type: cell-based
T2 construct: endogenous in cells; host or cells: Rat2 fibroblasts transformed with C-Harvey-Ras, or with H-Ras carrying the K-Ras C-terminal polybasic lysine domain
Experimental: (§4) In the present experiment, Rat2 cell line which expresses C-Harvey-Ras protein having transforming activity and Rat2 cell line(Korean patent application No. 97-14409) which is transformed with fused protein of H-Ras substituted with polybasic lysine domain at C-terminus of K-Ras were used. The experiment was performed by the modified Declue's method(Declue. J. E. et al., Cancer Research, 1991, 51, 712). Hereinafter, the experimental method will be described in more detail.
(§5) 3×10^5 cells of transformed Rat2 fibroblast cell line were sprayed on 60 mm cell cultivation dish and cultivated for 48 hours in a cell incubator at 37° C. and after 50% or more of density was reached, it was treated with the test compounds. The compound according to the present invention dissolved in dimethylsulfoxide(DMSO) was used. 1% concentration of dimethylsulfoxide was used in both control and test groups. After 4 hours from the treatment with the compound, methionine labeled with 150 μCi of radioactive isotope [^35S] per 1 ml of medium was added and after cultivating for 20 hours, the cells were washed with physiological saline water. The cells were lysed using 1 ml of cold cell lysis buffer solution(50 mM of Sodium HEPES buffer solution containing 5 mM of magnesium chloride, 1 mM of DTT, 1% NP 40, 1 mM of EDTA, 1 mM of PMSF, 2 μM of leupeptin, 2 μM of pepstatin A and 2 μM of antipain) and the supernatant wherein the cells were lysed was obtained by high-velocity centrifugation of 12,000 g×5 minutes. The amount of radioisotope in the supernatant was measured and standardized to obtain a quantitative result in immunoprecipitation reaction and then, Y13-259, a monoclonal antiboby specifically binding to Ras protein(Furth, M. E. et al., J. Virol, 1982, 43, 294) was added and reacted for 15 hours at 4° C. Protein A(combined with goat anti-murine imunoglobulin antibody)-agarose suspension was added to the solution and reacted for 1 hour at 4° C. and then, to remove the unspecific binding product, immunoprecipitates were washed with a buffer solution (50 mM Tris chloride buffer solution containing 50 mM of sodium chloride, 0.5% of sodium dioxycholate, 0.5% of NP 40 and 0.1% of SDS). The precipitates were added to a buffer solution for electrophoresis and boiled and then, electrophoresis was performed using 13.5% of SDS polyacrylamide gel. After electrophoresis, the gel was fixed and dried. Then, the gel was exposed to X-ray film, developed and printed. From the result of the experiment, intensities of band of protein combined with or without farnesyl of Ras protein were measured, and the concentration of the test compound inhibiting 50% of farnesyl binding was defined as CIC50, an in vivo Ras farnesyl transferase inhibitory activity.

Ras farnesyl transferase [4] = molecular target: T2, Ras farnesyl transferase; test: in vivo (cellular) Ras farnesyl transferase inhibitory activity, Rat2 cells transformed with H-Ras fused with polybasic lysine domain of K-Ras; type: cell-based
Experimental: as §4, §5

[5] = recombinant Ras farnesyl transferase, H-Ras substrate, tritium-farnesylpyrophosphate, 30 minutes at 37° C., read-out: H-Ras IC50
[6] = recombinant Ras farnesyl transferase, K-Ras substrate, read-out: K-Ras IC50
[7] = Rat2 cell line expressing C-Harvey-Ras, concentration inhibiting 50% of farnesyl binding of Ras protein, read-out: H-Ras CIC50
[8] = Rat2 cell line transformed with H-Ras substituted with polybasic lysine domain at C-terminus of K-Ras, concentration inhibiting 50% of farnesyl binding, read-out: K-Ras CIC50

| SMILES | IC50 (Ras farnesyl transferase [1]; [5]) | IC50 (Ras farnesyl transferase [2]; [6]) | IC50 (Ras farnesyl transferase [3]; [7]) | IC50 (Ras farnesyl transferase [4]; [8]) | IC50 (Ras farnesyl transferase [1]) | IC50 (Ras farnesyl transferase [2]) | IC50 (Ras farnesyl transferase [3]) | IC50 (Ras farnesyl transferase [4]) |
| --- | --- | --- | --- | --- | --- | --- | --- | --- |
| COCCN(C)C(=O)c1cn(Cc2cncn2CC2CCN(C(=O)OCC(C)C)CC2)cc1-c1cccc2ccccc12 [Compound 35, 1-[1-(1-Isobutoxycarbonyl-piperidin-4-ylmethyl)-1H-imidazol-5-ylmethyl]-3-[N-(2-methoxyethyl)-N-methyl]carbamoyl-4-(naphthalen-1-yl)-1H-pyrrole] | 0.006 µM | 0.01 to 0.1 µM | 0.01 to 0.1 µM | 1 to 10 µM |  |  |  |  |
| O=C(c1ccn(Cc2cncn2CC2CCN(C(=O)OCc3ccccc3)CC2)c1)c1cccc2ccccc12 [Compound 36, 1-{1-[1-(Benzyloxycarbonyl)piperidin-4-yl]methyl-1H-imidazol-5-yl}methyl-3-(naphthalen-1-yl)carbonyl-1H-pyrrole] |  |  |  |  | 0.2 µM | > 100 µM | 10 µM | 50 µM |
| CC(=O)N1CCC(Cn2cncc2Cn2ccc(C(=O)c3cccc4ccccc34)c2)CC1 [Compound 37, 1-[1-(1-Acetylpiperidin-4-yl)methyl-1H-imidazol-5-yl]methyl-3-(naphthalen-1-yl)carbonyl-1H-pyrrole] |  |  |  |  | 0.35 µM | 10 to 100 µM | 1 to 10 µM | 10 to 50 µM |
| CN1CCN(C(=O)c2cn(Cc3cncn3CC3CCN(C(=O)OCc4ccccc4)CC3)cc2-c2cccc3ccccc23)CC1 [Compound 38, 1-[1-(1-Benzyloxycarbonylpiperidin-4-yl)methyl-1H-imidazol-5-yl]methyl-3-(4-methylpiperazin-1-yl)carbonyl-4-(naphthalen-1-yl)-1H-pyrrole] | 0.0038 µM | 0.015 µM | 0.0125 µM | 2.5 µM |  |  |  |  |
| CN(C)CCN(C)C(=O)c1cn(Cc2cncn2CC2CCN(C(=O)OCc3ccccc3)CC2)cc1-c1cccc2ccccc12 [Compound 39, 1-[1-(-Benzyloxycarbonylpiperidin-4-yl)methyl-1H-imidazol-5-yl]methyl-3-{N-[2-(N,N-dimethylamino)ethyl]-N-methyl}carbamoyl-4-(naphthalen-1-yl)-1H-pyrrole] | 0.3 µM | 1.5 µM | 1 µM | 30 to 100 µM |  |  |  |  |
| COC(=O)N1CCC(Cn2cncc2Cn2cc(C(=O)N3CCN(C)CC3)c(-c3cccc4ccccc34)c2)CC1 [Compound 40, 1-[1-(1-Methoxycarbonylpiperidin-4-yl)methyl-1H-imidazol-5-yl]methyl-3-(4-methylpiperazin-1-yl)carbonyl-4-(naphthalen-1-yl)1H-pyrrole] | 0.0016 µM | 0.0042 µM | 0.03 µM | 10 to 50 µM |  |  |  |  |
| CN1CCN(C(=O)c2cn(Cc3cncn3CC3CCN(S(C)(=O)=O)CC3)cc2-c2cccc3ccccc23)CC1 [Compound 41, 3-(4-Methylpiperazin-1-yl)carbonyl-1-[1-(1-methylsulfonylpiperidin-4-yl)methyl-1H-imidazol-5-yl]methyl-4-(naphthalen-1-yl)-1H-pyrrole] | 0.003 µM | 0.01 µM | 0.05 µM | 10 to 50 µM |  |  |  |  |
| CC(=O)N1CCC(Cn2cncc2Cn2cc(C(=O)N3CCN(C)CC3)c(-c3cccc4ccccc34)c2)CC1 [Compound 42, 1-[1-(1-Acetylpiperidin-4-yl)methyl-1H-imidazol-5-yl]methyl-3-(4-methylpiperazin-1-yl)carbonyl-4-(naphthalen-1-yl)-1H-pyrrole] | 0.0012 µM | 0.006 µM | 0.025 µM | 10 to 50 µM |  |  |  |  |
| CN1CCN(C(=O)c2cn(Cc3cncn3CC3CCN(C(=O)CCc4ccccc4)CC3)cc2-c2cccc3ccccc23)CC1 [Compound 43, 3-(4-Methylpiperazin-1-yl)carbonyl-4-(naphthalen-1-yl)-1-{1-[1-(2-phenylethylcarbonyl)-piperidin-4-yl]methyl-1H-imidazol-5-yl}methyl-1H-pyrrole] | 0.002 µM | 0.01 µM | 0.05 µM | 10 to 50 µM |  |  |  |  |
| CN1CCN(C(=O)c2cn(Cc3cncn3CC3CCN(C(=O)COc4ccccc4)CC3)cc2-c2cccc3ccccc23)CC1 [Compound 44, 3-(4-Methylpiperazin-1-yl)carbonyl-4-(naphthalen-1-yl)-1-[1-(1-phenoxyacetylpiperidin-4-yl)methyl-1H-imidazol-5-yl]methyl-1H-pyrrole] | 0.002 µM | 0.011 µM | 0.05 µM | 10 to 50 µM |  |  |  |  |
| CN1CCN(C(=O)c2cn(Cc3cncn3CC3CCN(C(=O)OCc4ccc5ccccc5c4)CC3)cc2-c2cccc3ccccc23)CC1 [Compound 45, 3-(4-Methylpiperazin-1-yl)carbonyl-4-(naphthalen-1-yl)-1-{1-[1-(naphthalen-2-ylmethyloxy)carbonylpiperidin-4-yl]methyl-1H-imidazol-5-yl}methyl-1H-pyrrole] | 0.0018 µM | 0.012 µM | 0.035 µM | 10 µM |  |  |  |  |
| CC(C)CCOC(=O)N1CCC(Cn2cncc2Cn2cc(C(=O)N3CCN(C)CC3)c(-c3cccc4ccccc34)c2)CC1 [Compound 46] | 0.0022 µM | 0.016 µM | 0.025 µM | 10 to 50 µM |  |  |  |  |
| CN1CCN(C(=O)c2cn(Cc3cncn3CC3CCN(C(=O)OCc4ccc(F)cc4)CC3)cc2-c2cccc3ccccc23)CC1 [Compound 47] | 0.0033 µM | 0.006 µM | 0.0125 µM | 4 µM |  |  |  |  |
| CN1CCN(C(=O)c2cn(Cc3cncn3CC3CCN(C(=O)OC/C=C/c4ccccc4)CC3)cc2-c2cccc3ccccc23)CC1 [Compound 48] | 0.0033 µM | 0.007 µM | 0.0125 µM | 1 µM |  |  |  |  |
| CN1CCN(C(=O)c2cn(Cc3cncn3CC3CCN(C(=O)c4ccc5ccccc5c4)CC3)cc2-c2cccc3ccccc23)CC1 [Compound 49] | 0.0018 µM | 0.012 µM | 0.35 µM | 10 µM |  |  |  |  |
| CN1CCN(C(=O)c2cn(Cc3cncn3CC3CCN(C(=O)/C=C/c4ccccc4)CC3)cc2-c2cccc3ccccc23)CC1 [Compound 50] | 0.0017 µM | 0.008 µM | 0.03 µM | 10 to 50 µM |  |  |  |  |
| CC(C)c1nc(C(=O)N2CCC(Cn3cncc3Cn3cc(C(=O)N4CCN(C)CC4)c(-c4cccc5ccccc45)c3)CC2)cs1 [Compound 51] | 0.003 µM | 0.01 µM | 0.005 µM | 10 to 50 µM |  |  |  |  |
